# Measurements as given in patent US12622975B2, “Peptide-conjugated prodrugs” (priority 2019, dated 2026).
# Several values for one entry are separate records, joined by “and”; a condition that tells them apart may be missing. Equal values may be shown once. Entries after “also recorded” stand apart in the source; their conditions may differ. Read-outs that look alike come from different tables or passages of the source. Numbered stars: 1 amine (or outer) side, 2 acyl side, 3 side chain; on linkers, the order of the positions; unused ones are H or OH. Square brackets hold non-standard residues; d marks the D form. Peptide text beside a SMILES is read from it. * marks the point of attachment. X1 = O=C(CCC(=O)[*:2])OCC(N[*:1])C(O)c1ccc([N+](=O)[O-])cc1; Dichloroacetyl = O=C(C(Cl)Cl)*
# Tests used:
# [1] = tested on: wild type E. coli strain (K-12); assay: Bacteria culture and inhibitory activity assay (MIC); format: cell-based; settings: for MIC: Escherichia coli
# Experimental: Bacteria culture and inhibitory activity assay: Single esterase (BioH, YjfP, FrsA, YbfF, YfbB, YqiA, YeiG, or and YpfH) deletion mutants were purchased from Dharmacon Horizon Discovery (Cambridge, United Kingdom). […] Compounds were added at different concentrations.
# Compounds were added at different concentrations.
# E. coli (K-12) lysate = assay: Hydrolysis assay with E. coli lysate; format: in vitro ADME; settings: 24 hours after addition of E. coli lysate
# Experimental: (§1) Hydrolysis assay: Wild-type E. coli strains (K12) were harvested by centrifugation and the cell pellets were lysed using a sonic device. After centrifugation, the supernatant was collected and the proteinase inhibitor was added in the E. coli lysate. The concentration of E. coli lysate was normalized by the fluorescence intensity of 5-carboxyfluorescein diacetate (CFDA). Briefly, different concentrations of CES (4 U/mL, 2 U/mL, 1 U/mL, 0.5 U/mL, 0.25 U/mL, 0.125 U/mL, 0.0625 U/mL, 0.03125 U/mL, 0.015625 U/mL and 0 U/mL) and different amount of E. coli lysates were prepared in PBS buffer. Followed by, 25 μM of CFDA was added in and incubated at room temperature for 1 hour. Then the fluorescence was tested to draw a fluorescence-concentration dependent curve for figuring out the concentration of E. coli lysates. Solutions of CLsuGG (200 μM) were prepared in pH 7.4 PBS buffer. CES and E. coli lysate (0.1 U/mL) were added and incubated with above solutions at 37° C. for 24 hours. At different time points, the solution was taken out, extracted with an equal volume of butanol, concentrated to dryness, and resuspended with butanol for HPLC analysis. HPLC was performed with Agilent 1100 Series Liquid Chromatograph equipped with an XTerra C18 reverse phase column and Variable Wavelength Detector. The hydrolyzed mixture resuspended in 1 mL of butanol was injected to HPLC mobile phase (0.1% trifluoroacetic acid, the starting ratio: 10% acetonitrile and 90% water). The system was run at a flow rate of 10 mL/min.
# as §1, with “analysis.” for “analysis. HPLC was performed with Agilent 1100 Series Liquid Chromatograph equipped with an XTerra C18 reverse phase column and Variable Wavelength Detector. The hydrolyzed mixture resuspended in 1 mL of butanol was injected to HPLC mobile phase (0.1% trifluoroacetic acid, the starting ratio: 10% acetonitrile and 90% water). The system was run at a flow rate of 10 mL/min.”
# carboxylesterase (CES) = assay: Hydrolysis assay with exogenous carboxylesterase; format: in vitro ADME, porcine; settings: CES 0.1 U/mL
# Description: Experimental materials and instruments. All the solvents and chemical reagents were used directly as received from the commercial sources without further purification unless otherwise stated. Carboxylesterase (CES) from porcine liver was purchased from Sigma-Aldrich (lyophilized powder, >15 units/mg solid; Unit definition: One unit will hydrolyze 1.0 μmole of ethyl butyrate to butyric acid and ethanol per min at pH 8.0 at 25). CLsuGG, CLsuG, CLsuGGG were purified with Agilent 1100 Series Liquid Chromatography system, equipped with an XTerra C18 RP column and Variable Wavelength detector.
# as §1, with “Briefly, different concentrations of CES (4 U/mL, 2 U/mL, 1 U/mL, 0.5 U/mL, 0.25 U/mL, 0.125 U/mL, 0.0625 U/mL, 0.03125 U/mL, 0.015625 U/mL and 0 U/mL) and different amount of E. coli lysates were prepared in PBS buffer. Followed by, 25 μM of CFDA was added in and incubated at room temperature for 1 hour.” left out, “CES and E. coli lysate (0.1 U/mL) were added and incubated with above solutions at 37° C. for 24 hours.” left out
# [2] = Stability in human serum (LC-MS); format: in vitro ADME; settings: 200 μM, 37° C.; for Compounds remaining (%) 0 h / Compounds remaining (%) 2 h / Compounds remaining (%) 24 h: human serum
# HS-5 cells = assay: Cell viability assay (MTT), HS-5; format: cell-based, human; settings: 24 hours; for cytotoxicity / cell viability of HS-5 cells: 20 μM; for cytotoxicity of control compounds against HS-5 cells: around MIC values (0.5 μM)
# [3] = wild type E. coli (K-12), read-out: MIC
# [4] = wild type E. coli (K-12), read-out: MIC (μg/mL)
compound,measurement,setting,value
O=C(O)CC(NC(=O)CNC(=O)CCC(=O)OCC(NC(=O)C(Cl)Cl)C(O)c1ccc([N+](=O)[O-])cc1)C(=O)O (stereo not drawn) [Compound 2j],MIC (μM),[1]; wild type E. coli (K-12),20 µM
NCCCCC(NC(=O)C(CCCCN)NC(=O)C(Cc1ccccc1)NC(=O)C(Cc1ccccc1)NC(=O)CCC(=O)OCC(NC(=O)C(Cl)Cl)C(O)c1ccc([N+](=O)[O-])cc1)C(=O)O (stereo not drawn) [Compound 2e] (Dichloroacetyl-[X1]FFKK-OH; configuration not given here),MIC (μM),[1]; wild type E. coli (K-12),200 µM
O=C(O)CNC(=O)CCC(=O)OCC(NC(=O)C(Cl)Cl)C(O)c1ccc([N+](=O)[O-])cc1 (stereo not drawn) [CLsuG],MIC (μM),[1]; wild type E. coli (K-12),>200 µM
same,MIC (μg/mL),[1]; wild type E. coli (K-12),> 95.8 µg/mL and 95.8 µg/mL
"O=C(O)CCC(=O)OC[C@@H](NC(=O)C(Cl)Cl)[C@H](O)c1ccc([N+](=O)[O-])cc1 [CLsu, chloramphenicol succinate, reference compound]",MIC,[1]; read-out: MIC value before addition of exogenous CES,90 µM
same,MIC,"[1]; FIG. 3B, with exogenous carboxylesterase (CES), read-out: MIC value after addition of exogenous CES",49 µM
same,MIC,[1]; [3],> 200 µM
same,MIC,[1]; [4],> 84.6 µg/mL
same,MIC (μM),[1]; wild type E. coli (K-12),>200 µM
same,MIC (μg/mL),[1]; wild type E. coli (K-12),>84.6 µg/mL
same,fraction hydrolyzed,E. coli (K-12) lysate,less than 20%
same,hydrolysis with addition of CES,carboxylesterase (CES),hardly undergoes hydrolysis
same,conversion in human serum,[2]; after 24 hours,less than 15%
same,Compounds remaining (%) 0 h,[2],100%
same,Compounds remaining (%) 2 h,[2],96.2%
same,Compounds remaining (%) 24 h,[2],87.0%
same,cytotoxicity / cell viability of HS-5 cells,HS-5 cells,largely innocuous; also recorded: lower cytotoxicity than CL
CNC(=O)CNC(=O)CNC(=O)CCC(=O)OCC(NC(=O)C(Cl)Cl)C(O)c1ccc([N+](=O)[O-])cc1 (stereo not drawn) [Compound 1e],MIC (μM),[1]; wild type E. coli (K-12),20 µM
O=C(O)CC(NC(=O)C(CC(=O)O)NC(=O)CCC(=O)OCC(NC(=O)C(Cl)Cl)C(O)c1ccc([N+](=O)[O-])cc1)C(=O)O (stereo not drawn) [Compound 2i],MIC (μM),[1]; wild type E. coli (K-12),200 µM
CC(NC(=O)C(C)NC(=O)C(C)NC(=O)CCC(=O)OCC(NC(=O)C(Cl)Cl)C(O)c1ccc([N+](=O)[O-])cc1)C(=O)O (stereo not drawn) [Compound 1i],MIC (μM),[1]; wild type E. coli (K-12),80 µM
NCCCCC(NC(=O)CNC(=O)CCC(=O)OCC(NC(=O)C(Cl)Cl)C(O)c1ccc([N+](=O)[O-])cc1)C(=O)O (stereo not drawn) [Compound 2f],MIC (μM),[1]; wild type E. coli (K-12),20 µM
same,Compounds remaining (%) 0 h,[2],100%
same,Compounds remaining (%) 2 h,[2],0%
same,Compounds remaining (%) 24 h,[2],0%
O=C(O)CNC(=O)CNC(=O)C(Cc1ccccc1)NC(=O)CCC(=O)OCC(NC(=O)C(Cl)Cl)C(O)c1ccc([N+](=O)[O-])cc1 (stereo not drawn) [Compound 1n],MIC (μM),[1]; wild type E. coli (K-12),80 µM
CC(NC(=O)CNC(=O)CCC(=O)OCC(NC(=O)C(Cl)Cl)C(O)c1ccc([N+](=O)[O-])cc1)C(=O)O (stereo not drawn) [Compound 1b],MIC (μM),[1]; wild type E. coli (K-12),20 µM
CC(NC(=O)C(C)NC(=O)CCC(=O)OCC(NC(=O)C(Cl)Cl)C(O)c1ccc([N+](=O)[O-])cc1)C(=O)O (stereo not drawn) [Compound 1h],MIC (μM),[1]; wild type E. coli (K-12),100 µM
O=C(O)CNC(=O)CNC(=O)CNC(=O)CNC(=O)CNC(=O)CCC(=O)OCC(NC(=O)C(Cl)Cl)C(O)c1ccc([N+](=O)[O-])cc1 (stereo not drawn) [Compound 1q] (Dichloroacetyl-[X1]GGGGG-OH),MIC (μM),[1]; wild type E. coli (K-12),40 µM
CC(C)CC(NC(=O)CNC(=O)CCC(=O)OCC(NC(=O)C(Cl)Cl)C(O)c1ccc([N+](=O)[O-])cc1)C(=O)O (stereo not drawn) [Compound 1a],MIC (μM),[1]; wild type E. coli (K-12),20 µM
O=C(O)c1cn(C2CC2)c2cc(N3CCNCC3)c(F)cc2c1=O [ciprofloxacin],cytotoxicity of control compounds against HS-5 cells,HS-5 cells,relatively low cytotoxicity
CC(NC(=O)C(C)NC(=O)C(C)NC(=O)CCC(=O)OCC(NC(=O)C(Cl)Cl)C(O)c1ccc([N+](=O)[O-])cc1)C(=O)O (stereo not drawn) [Compound 1j],MIC (μM),[1]; wild type E. coli (K-12),100 µM
O=C(O)CCC(NC(=O)C(CCC(=O)O)NC(=O)CCC(=O)OCC(NC(=O)C(Cl)Cl)C(O)c1ccc([N+](=O)[O-])cc1)C(=O)O (stereo not drawn) [Compound 2g],MIC (μM),[1]; wild type E. coli (K-12),>200 µM
"O=C(N[C@H](CO)[C@H](O)c1ccc([N+](=O)[O-])cc1)C(Cl)Cl [CL, chloramphenicol, reference compound]",MIC,[1]; [3],20 µM
same,MIC,[1]; [4],6.5 µg/mL
same,cytotoxicity / cell viability of HS-5 cells,HS-5 cells,reduced the viability
O=C(CCC(=O)OCC(NC(=O)C(Cl)Cl)C(O)c1ccc([N+](=O)[O-])cc1)NCC(=O)NCC(=O)NC(Cc1ccccc1)C(=O)O (stereo not drawn) [Compound 1k],MIC (μM),[1]; wild type E. coli (K-12),20 µM
same,Compounds remaining (%) 0 h,[2],100%
same,Compounds remaining (%) 2 h,[2],0%
same,Compounds remaining (%) 24 h,[2],0%
O=C(O)CNC(=O)C(Cc1ccccc1)NC(=O)CNC(=O)CCC(=O)OCC(NC(=O)C(Cl)Cl)C(O)c1ccc([N+](=O)[O-])cc1 (stereo not drawn) [Compound 1m],MIC (μM),[1]; wild type E. coli (K-12),20 µM
N=C(N)NCCCC(NC(=O)C(CCCNC(=N)N)NC(=O)CCC(=O)OCC(NC(=O)C(Cl)Cl)C(O)c1ccc([N+](=O)[O-])cc1)C(=O)O (stereo not drawn) [Compound 2a],MIC (μM),[1]; wild type E. coli (K-12),200 µM
N=C(N)NCCCC(NC(=O)C(CCCNC(=N)N)NC(=O)C(Cc1ccccc1)NC(=O)C(Cc1ccccc1)NC(=O)CCC(=O)OCC(NC(=O)C(Cl)Cl)C(O)c1ccc([N+](=O)[O-])cc1)C(=O)O (stereo not drawn) [Compound 2d] (Dichloroacetyl-[X1]FFRR-OH; configuration not given here),MIC (μM),[1]; wild type E. coli (K-12),200 µM
CC[C@H]1OC(=O)[C@H](C)C(=O)[C@H](C)[C@@H](O[C@@H]2O[C@H](C)C[C@H](N(C)C)[C@H]2O)[C@](C)(OC)C[C@@H](C)C(=O)[C@H](C)[C@H]2N(CCCCn3cnc(-c4cccnc4)c3)C(=O)O[C@]12C [telithromycin],cytotoxicity of control compounds against HS-5 cells,HS-5 cells,relatively low cytotoxicity
O=C(CCC(=O)OCC(NC(=O)C(Cl)Cl)C(O)c1ccc([N+](=O)[O-])cc1)NCC(=O)NCC(=O)NC(Cc1ccccc1)C(=O)NC(Cc1ccccc1)C(=O)O (stereo not drawn) [Compound 1o] (Dichloroacetyl-[X1]GGFF-OH; configuration not given here),MIC (μM),[1]; wild type E. coli (K-12),20 µM
same,Compounds remaining (%) 0 h,[2],100%
same,Compounds remaining (%) 2 h,[2],7.2%
same,Compounds remaining (%) 24 h,[2],0%
O=C(O)CC(NC(=O)C(CC(=O)O)NC(=O)CCC(=O)OCC(NC(=O)C(Cl)Cl)C(O)c1ccc([N+](=O)[O-])cc1)C(=O)O (stereo not drawn) [Compound 2h],MIC (μM),[1]; wild type E. coli (K-12),>200 µM
CC(NC(=O)C(C)NC(=O)CCC(=O)OCC(NC(=O)C(Cl)Cl)C(O)c1ccc([N+](=O)[O-])cc1)C(=O)O (stereo not drawn) [Compound 1g],MIC (μM),[1]; wild type E. coli (K-12),80 µM
O=C(CCC(=O)OCC(NC(=O)C(Cl)Cl)C(O)c1ccc([N+](=O)[O-])cc1)NC(Cc1ccccc1)C(=O)NC(Cc1ccccc1)C(=O)O (stereo not drawn) [Compound 3a],MIC (μM),[1]; wild type E. coli (K-12),100 µM
O=C(O)CNC(=O)CNC(=O)CNC(=O)CNC(=O)CCC(=O)OCC(NC(=O)C(Cl)Cl)C(O)c1ccc([N+](=O)[O-])cc1 (stereo not drawn) [Compound 1f] (Dichloroacetyl-[X1]GGGG-OH),MIC (μM),[1]; wild type E. coli (K-12),20 µM
